Assay results as given in patent US20120225862A1, “HETEROARYL BENZAMIDES, COMPOSITIONS AND METHODS OF USE” (AUCKLAND UNIVSERVICES LIMITED, priority 2009, published 2012).

Key:
RCC4 = experiment: XTT IC50 / viability assay, RCC4 cells; format: cell-based, human; conditions: Homo sapiens, RCC4, 96 h; XTT assay, four days
Method in brief: (§1)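 RCC4 parental and VHL-reintroduced RCC4/VHL cells (DMEM, 10% FCS) treated with serially diluted drug for four days. Viability by XTT (0.3 mg/mL) with N-methyl dibenzopyrazine methyl sulfate, 1–2 h at 37 °C, absorbance 450 nm; IC50 by linear interpolation.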

RCC4/VHL = experiment: XTT IC50 assay, selectivity RCC4 versus RCC4 with VHL-reintroduced; format: cell-based, human; conditions: selectivity ratio of XTT IC50 values, RCC4 vs RCC4/VHL
Method in brief: as §1

Structure (SMILES)	melting point	IC50 (RCC4)	Ratio (RCC4:RCC/VHL) (RCC4/VHL)
O=C(Nc1cccnc1)c1ccc(CNS(=O)(=O)c2ccc(C34CC5CC(CC(C5)C3)C4)cc2)cc1 (hydrate or solvate) [Example 39, 4-[({[4-(1-Adamantyl)phenyl]sulfonyl}amino)methyl]-N-(3-pyridinyl)benzamide]	220 to 222 °C		
O=C(Nc1cccnc1)c1ccc(CNS(=O)(=O)c2ccc(C34CC5CC(CC(Cl)(C5)C3)C4)cc2)cc1 (hydrate or solvate) [Example 40, 4-[({[4-(3-chloro-1-adamantyl)phenyl]sulfonyl}amino)methyl]-N-(3-pyridinyl)benzamide]	229 to 232 °C		
O=C(Nc1nccs1)c1ccc(CNS(=O)(=O)c2ccccc2)cc1 [Example 4, 4-(Phenylsulfonamidomethyl)-N-(thiazol-2-yl)benzamide]	189 to 191 °C	> 20 µM	
O=C(Nc1cc[nH]n1)c1ccc(CNS(=O)(=O)c2ccccc2)cc1 [Example 5, 4-(Phenylsulfonamidomethyl)-N-(1H-pyrazol-3-yl)benzamide]	180 to 182 °C	> 20 µM	
O=C(Nc1cnc2ccccc2c1)c1ccc(CNS(=O)(=O)c2ccccc2)cc1 [Example 6, 4-(Phenylsulfonamidomethyl)-N-(quinolin-3-yl)benzamide]	186 to 188 °C	> 20 µM	
O=C(Nc1cccc2ncccc12)c1ccc(CNS(=O)(=O)c2ccccc2)cc1 [Example 7, 4-(Phenylsulfonamidomethyl)-N-(quinolin-5-yl)benzamide]	198 to 201 °C	> 20 µM	
O=C(Nc1cnccn1)c1ccc(CNS(=O)(=O)c2ccccc2)cc1 [Example 8, 4-(Phenylsulfonamidomethyl)-N-(pyrazin-2-yl)benzamide]	200 to 202 °C	> 20 µM	
O=C(Nc1ncccn1)c1ccc(CNS(=O)(=O)c2ccccc2)cc1 [Example 9, 4-(Phenylsulfonamidomethyl)-N-(pyrimidin-2-yl)benzamide]	180 to 182 °C	> 20 µM	
COC(=O)c1ccccc1S(=O)(=O)NCc1ccc(C(=O)Nc2cccnc2)cc1 [Example 14, Methyl 2-(N-(4-(Pyridin-3-ylcarbamoyl)benzyl)sulfamoyl)benzoate]	155 to 157 °C	> 20 µM	
O=C(Nc1cccnc1)c1ccc(CNS(=O)(=O)c2ccccc2C(F)(F)F)cc1 [Example 15, N-(pyridin-3-yl)-4-((2-(trifluoromethyl)phenylsulfonamido)methyl)benzamide]	234 to 237 °C	> 20 µM	
COC(=O)CCc1ccc(S(=O)(=O)NCc2ccc(C(=O)Nc3cccnc3)cc2)cc1 [Example 41, Methyl 3-{4-[({4-[(3-Pyridinylamino)carbonyl]benzyl}amino)sulfonyl]phenyl}propanoate]	181 to 182 °C	> 20 µM	
COC(=O)c1ccc(S(=O)(=O)NCc2ccc(C(=O)Nc3cccnc3)cc2)cc1 [Example 47, Methyl 4-(N-(4-(Pyridin-3-ylcarbamoyl)benzyl)sulfamoyl)benzoate]	212 to 215 °C	> 20 µM	
O=C(Nc1cccnc1)c1ccc(CNS(=O)(=O)c2ccc([N+](=O)[O-])cc2)cc1 [Example 51, 4-((4-Nitrophenylsulfonamido)methyl)-N-(pyridin-3-yl)benzamide]	241 to 243 °C	> 20 µM	
N#Cc1cc(S(=O)(=O)NCc2ccc(C(=O)Nc3cccnc3)cc2)ccc1F [Example 71, 4-((3-Cyano-4-fluorophenylsulfonamido)methyl)-N-(pyridin-3-yl)benzamide]	211 to 213 °C		
CC(C)(C)c1ccc(S(=O)(=O)NCc2ccc(C(=O)Nc3ccncc3)cc2)cc1 [Example 106, 4-((4-tert-Butylphenylsulfonamido)methyl)-N-(pyridin-4-yl)benzamide]	261 to 263 °C		
O=C(Nc1cccnc1)c1ccc(CNS(=O)(=O)c2ccc(N3CCCCC3)cc2)cc1 [Example 128, 4-[({[4-(1-Piperidinyl)phenyl]sulfonyl}amino)methyl]-N-(3-pyridinyl)benzamide]		< 1 µM	c (“c” reflects a ratio of >100)
COC1CCN(c2ccc(S(=O)(=O)NCc3ccc(C(=O)Nc4cccnc4)cc3)cc2)CC1 [Example 129, 4-[({[4-(4-Methoxy-1-piperidinyl)phenyl]sulfonyl}amino)methyl]-N-(3-pyridinyl)benzamide]		< 1 µM	c (“c” reflects a ratio of >100)

Structure (SMILES)	melting point	IC50 (RCC4)	Ratio (RCC4:RCC/VHL) (RCC4/VHL)
NCCOCCOCCOCCOCCOCCOCCCc1ccc(S(=O)(=O)NCc2ccc(C(=O)Nc3cccnc3)cc2)cc1 [Example 130, 4-[({[4-(21-Amino-4,7,10,13,16,19-hexaoxahenicos-1-yl)phenyl]sulfonyl}amino)methyl]-N-(3-pyridinyl)benzamide]		1 to 20 µM	a (“a” reflects a ratio of RCC4/RCC-VHL+ ranging from 1 to 10)
O=C(Nc1cccnc1)c1ccc(CNS(=O)(=O)c2ccc(NCCCN3CCOCC3)cc2)cc1 [Example 131, 4-({[(4-{[3-(4-Morpholinyl)propyl]amino}phenyl)sulfonyl]amino}methyl)-N-(3-pyridinyl)benzamide]		< 1 µM	b (“b” reflects from 10 to 100)
CN1CCN(c2cccc(S(=O)(=O)NCc3ccc(C(=O)Nc4cccnc4)cc3)c2)CC1 [Example 132, 4-[({[3-(4-Methyl-1-piperazinyl)phenyl]sulfonyl}amino)methyl]-N-(3-pyridinyl)benzamide]		< 1 µM	b (“b” reflects from 10 to 100)
CN(C)CCNc1ccc(S(=O)(=O)NCc2ccc(C(=O)Nc3cccnc3)cc2)cc1 [Example 133, 4-({[(4-{[2-(Dimethylamino)ethyl]amino}phenyl)sulfonyl]amino}methyl)-N-(3-pyridinyl)benzamide]		< 1 µM	c (“c” reflects a ratio of >100)
O=C(Nc1cccnc1)c1ccc(CNS(=O)(=O)c2ccc(Cc3ccccc3)cc2)cc1 [Example 135, 4-({[(4-Benzylphenyl)sulfonyl]amino}methyl)-N-(3-pyridinyl)benzamide]		< 1 µM	b (“b” reflects from 10 to 100)
O=C(Nc1cccnc1)c1ccc(CNS(=O)(=O)c2ccc(C#CCN3CCOCC3)cc2)cc1 [Example 136, 4-{[({4-[3-(4-Morpholinyl)-1-propynyl]phenyl}sulfonyl)amino]methyl}-N-(3-pyridinyl)benzamide]		< 1 µM	b (“b” reflects from 10 to 100)
CN(C)CC#Cc1ccc(S(=O)(=O)NCc2ccc(C(=O)Nc3cccnc3)cc2)cc1 [Example 137, 4-{[({4-[3-(Dimethylamino)-1-propynyl]phenyl}sulfonyl)amino]methyl}-N-(3-pyridinyl)benzamide]		< 1 µM	b (“b” reflects from 10 to 100)
CN(Cc1ccc(C(=O)Nc2cccnc2)cc1)S(=O)(=O)c1ccc(C(C)(C)C)cc1 [Example 138, 4-{[[(4-tert-Butylphenyl)sulfonyl](methyl)amino]methyl}-N-(3-pyridinyl)benzamide]		1 to 20 µM	a (“a” reflects a ratio of RCC4/RCC-VHL+ ranging from 1 to 10)
CCN(Cc1ccc(C(=O)Nc2cccnc2)cc1)S(=O)(=O)c1ccc(C(C)(C)C)cc1 [Example 139, 4-{[[(4-tert-Butylphenyl)sulfonyl](ethyl)amino]methyl}-N-(3-pyridinyl)benzamide]		> 20 µM	a (“a” reflects a ratio of RCC4/RCC-VHL+ ranging from 1 to 10)
O=C(Nc1cccnc1)c1ccc(CNS(=O)(=O)c2ccc(CCCN3CCOCC3)cc2)cc1 [Example 141, 4-{[({4-[3-(4-Morpholinyl)propyl]phenyl}sulfonyl)amino]methyl}-N-(3-pyridinyl)benzamide]		< 1 µM	c (“c” reflects a ratio of >100)
CN(C)CCCc1ccc(S(=O)(=O)NCc2ccc(C(=O)Nc3cccnc3)cc2)cc1 [Example 142, 4-{[({4-[3-(Dimethylamino)propyl]phenyl}sulfonyl)amino]methyl}-N-(3-pyridinyl)benzamide]		< 1 µM	b (“b” reflects from 10 to 100)
CCC(=O)Nc1cccc(S(=O)(=O)NCc2ccc(C(=O)Nc3cccnc3)cc2)c1 [Example 143, 4-[({[3-(Propionylamino)phenyl]sulfonyl}amino)methyl]-N-(3-pyridinyl)benzamide]	215 to 218 °C		
C=CC(=O)Nc1cccc(S(=O)(=O)NCc2ccc(C(=O)Nc3cccnc3)cc2)c1 [Example 144, 4-[({[3-(Acryloylamino)phenyl]sulfonyl}amino)methyl]-N-(3-pyridinyl)benzamide]	178 to 180 °C		
Cc1cc(CNS(=O)(=O)c2ccc(C(C)(C)C)cc2)ccc1C(=O)Nc1cccnc1 [Example 145, 4-({[(4-tert-Butylphenyl)sulfonyl]amino}methyl)-2-methyl-N-(3-pyridinyl)benzamide]	162 to 163 °C		
CC(C)(C)c1ccc(S(=O)(=O)NCc2ccc(C(=O)Nc3cccnc3)c(F)c2)cc1 [Example 146, 4-({[(4-tert-Butylphenyl)sulfonyl]amino}methyl)-2-fluoro-N-(3-pyridinyl)benzamide]	185 to 187 °C		
Cc1cc(C(=O)Nc2cccnc2)ccc1CNS(=O)(=O)c1ccc(C(C)(C)C)cc1 [Example 147, 4-({[(4-tert-Butylphenyl)sulfonyl]amino}methyl)-3-methyl-N-(3-pyridinyl)benzamide]	203 to 205 °C		
CC(C)(C)c1ccc(S(=O)(=O)NCc2ccc(C(=O)Nc3cccnc3)cc2F)cc1 [Example 148, 4-({[(4-tert-Butylphenyl)sulfonyl]amino}methyl)-3-fluoro-N-(3-pyridinyl)benzamide]	198 to 200 °C		
